Assay results taken from patent US10143695B2 (priority 2016, dated 2018).
pIC50: −log10 of the molar value.

Tests used:
Assay type in all cases: cell-based
[1] = test system: BT474 cells (HER2 expressing cells); experiment: CellTiter-Glo cell viability assay, BT474; details: Homo sapiens, BT-474; PBD compounds, 72 h incubation
Method: (§1) PBD compounds and conjugates thereof were evaluated for their antiproliferation properties in tumor cell lines in vitro using CellTiter-Glo® (Promega Corp). Cells were plated in black walled 96-well plate and allowed to adhere overnight at 37° C. in a humidified atmosphere of 5% CO2. BT474, SKBR3, NCI-N87 cells (HER2 expressing cells), JIMT1 cells (HER2 medium expression level cells) and MCF7 cells (HER2 low expressing levels cells) and were plated at a density of 5,000 cells per well. The next day the medium was replaced with 50 μL fresh medium and 50 μL of 2× stocks of PBD compounds or antibody-PBD conjugate were added to appropriate wells, mixed and incubated for 72 h. CellTiter-Glo® reagent was added to the wells at room temperature and the luminescent signal was measured after 10 min using a SpectraMax M5 plate reader (Molecular Devices). Dose response curves were generated using SoftMax Pro software. IC50 values were determined from four-parameter curve fitting.

[2] = test system: SKBR3 cells (HER2 expressing cells); experiment: CellTiter-Glo cell viability assay, SKBR3; details: Homo sapiens, SK-BR-3; PBD compounds, 72 h incubation
Method: as §1

[3] = test system: NCI-N87 cells (HER2 expressing cells); experiment: CellTiter-Glo cell viability assay, NCI-N87; details: Homo sapiens, NCI-N87; PBD compounds, 72 h incubation
Method: as §1

[4] = test system: JIMT1 cells (HER2 medium expression level cells); experiment: CellTiter-Glo cell viability assay, JIMT1; details: Homo sapiens, JIMT-1; PBD compounds, 72 h incubation
Method: as §1

[5] = test system: MCF7 cells (HER2 low expressing levels cells); experiment: CellTiter-Glo cell viability assay, MCF7; details: Homo sapiens, MCF7; PBD compounds, 72 h incubation
Method: as §1

Row | Compound | pIC50 [1] | pIC50 [2] | pIC50 [3] | pIC50 [4] | pIC50 [5]
1 | C=C1CC2C=Nc3cc(OCCCC(=O)Nc4cn(C)c(C(=O)Nc5cc(C(=O)Nc6cc(C(=O)NCCCO)n(C)c6)n(C)c5)n4)c(OC)cc3C(=O)N2C1 (stereo in doubt) [Compound 56, (S,Z)-N-(5-(5-(3-hydroxypropylcarbamoyl)-1-methyl-1H-pyrrol-3-ylcarbamoyl)-1-methyl-1H-pyrrol-3-yl)-4-(4-(7-methoxy-2-methylene-5-oxo-2,3,5,11a-tetrahydro-1H-benzo[e]pyrrolo[1,2-a][1,4]diazepin-8-yloxy)butanamido)-1-methyl-1H-imidazole-2-carboxamide] | 7.63 | 8.10 | 7.87 | 8.05 | 7.26
2 | C=C1C[C@H]2C=Nc3cc(OCCCC(=O)Nc4cn(C)c(C(=O)Nc5cc(C(=O)NCc6ccc(N)cc6)n(C)c5)n4)c(OC)cc3C(=O)N2C1 [Compound 3A, (S,Z)-N-(5-(4-aminobenzylcarbamoyl)-1-methyl-1H-pyrrol-3-yl)-4-(4-(7-methoxy-2-methylene-5-oxo-2,3,5,11a-tetrahydro-1H-benzo[e]pyrrolo[1,2-a][1,4]diazepin-8-yloxy)butanamido)-1-methyl-1H-imidazole-2-carboxamide] | 7.16 | 8.05 | 7.85 | 7.04 | 6.67
3 | C=C1C[C@H]2C=Nc3cc(OCCCC(=O)Nc4cn(C)c(C(=O)Nc5cc(C(=O)Nc6cc(C(=O)NCc7ccc(N)cc7)n(C)c6)n(C)c5)n4)c(OC)cc3C(=O)N2C1 [Compound 4A, (S,Z)-N-(5-(5-(4-aminobenzylcarbamoyl)-1-methyl-1H-pyrrol-3-ylcarbamoyl)-1-methyl-1H-pyrrol-3-yl)-4-(4-(7-methoxy-2-methylene-5-oxo-2,3,5,11a-tetrahydro-1H-benzo[e]pyrrolo[1,2-a][1,4]diazepin-8-yloxy)butanamido)-1-methyl-1H-imidazole-2-carboxamide] | 7.57 | 8.03 | 7.62 | 7.94 | 6.00
4 | C=C1C[C@H]2C=Nc3cc(OCCCC(=O)Nc4cn(C)c(C(=O)Nc5cc(C(=O)N6Cc7ccc(N)cc7C6)n(C)c5)n4)c(OC)cc3C(=O)N2C1 [Compound 5A, (S,Z)-N-(5-(5-aminoisoindoline-2-carbonyl)-1-methyl-1H-pyrrol-3-yl)-4-(4-(7-methoxy-2-methylene-5-oxo-2,3,5,11a-tetrahydro-1H-benzo[e]pyrrolo[1,2-a][1,4]diazepin-8-yloxy)butanamido)-1-methyl-1H-imidazole-2-carboxamide] | 8.54 | 9.01 | 8.28 | 7.80 | 7.62
5 | C=C1C[C@H]2C=Nc3cc(OCCCC(=O)Nc4cn(C)c(C(=O)Nc5cc(C(=O)Nc6cc(C(=O)N7Cc8ccc(N)cc8C7)n(C)c6)n(C)c5)n4)c(OC)cc3C(=O)N2C1 [Compound 6A, (S,Z)-N-(5-(5-(5-aminoisoindoline-2-carbonyl)-1-methyl-1H-pyrrol-3-ylcarbamoyl)-1-methyl-1H-pyrrol-3-yl)-4-(4-(7-methoxy-2-methylene-5-oxo-2,3,5,11a-tetrahydro-1H-benzo[e]pyrrolo[1,2-a][1,4]diazepin-8-yloxy)butanamido)-1-methyl-1H-imidazole-2-carboxamide] | 8.28 | 8.82 | 8.38 | 8.05 | 7.77
6 | C=C1C[C@H]2C=Nc3cc(OCCCC(=O)Nc4cn(C)c(C(=O)Nc5cc(C(=O)Nc6cc(C(=O)n7ccc8cc(OC)ccc87)n(C)c6)n(C)c5)n4)c(OC)cc3C(=O)N2C1 [Compound 7A] | 9.22 | 9.82 | 9.52 | 8.96 | 8.57
7 | C=C1C[C@H]2C=Nc3cc(OCCCC(=O)Nc4cn(C)c(C(=O)Nc5cc(C(=O)Nc6cc(C(=O)n7ccc8cc(N)ccc87)n(C)c6)n(C)c5)n4)c(OC)cc3C(=O)N2C1 [Compound 8, (S,Z)-N-(5-((5-(5-amino-1H-indole-1-carbonyl)-1-methyl-1H-pyrrol-3-yl)carbamoyl)-1-methyl-1H-pyrrol-3-yl)-4-(4-((7-methoxy-2-methylene-5-oxo-2,3,5,11a-tetrahydro-1H-benzo[e]pyrrolo[1,2-a][1,4]diazepin-8-yl)oxy)butanamido)-1-methyl-1H-imidazole-2-carboxamide] | 9.08 | 9.82 | 9.37 | 8.66 | 8.40
8 | C=C1C[C@H]2C=Nc3cc(OCCCC(=O)Nc4cn(C)c(C(=O)Nc5cc(C(=O)Nc6cc(C(=O)n7ccc8cc(C(=O)OC)ccc87)n(C)c6)n(C)c5)n4)c(OC)cc3C(=O)N2C1 [Compound 8A, (S,Z)-methyl 1-(4-(4-(4-(4-(7-methoxy-2-methylene-5-oxo-2,3,5,11a-tetrahydro-1H-benzo[e]pyrrolo[1,2-a][1,4]diazepin-8-yloxy)butanamido)-1-methyl-1H-imidazole-2-carboxamido)-1-methyl-1H-pyrrole-2-carboxamido)-1-methyl-1H-pyrrole-2-carbonyl)-1H-indole-5-carboxylate] | 9.08 | 9.85 | 8.54 | 9.26 | 8.43
9 | C=C1C[C@H]2C=Nc3cc(OCCCC(=O)Nc4cn(C)c(C(=O)Nc5cc(C(=O)Nc6cc(C(=O)n7ccc8c(N)cccc87)n(C)c6)n(C)c5)n4)c(OC)cc3C(=O)N2C1 [Compound 11A, (S,Z)-N-(5-(5-(4-amino-1H-indole-1-carbonyl)-1-methyl-1H-pyrrol-3-ylcarbamoyl)-1-methyl-1H-pyrrol-3-yl)-4-(4-(7-methoxy-2-methylene-5-oxo-2,3,5,11a-tetrahydro-1H-benzo[e]pyrrolo[1,2-a][1,4]diazepin-8-yloxy)butanamido)-1-methyl-1H-imidazole-2-carboxamide] | 8.40 | 9.17 | 8.82 | 7.95 | 7.83
10 | C=C1C[C@H]2C=Nc3cc(OCCCC(=O)Nc4cn(C)c(C(=O)Nc5cc(C(=O)n6ccc7cc(N)ccc76)n(C)c5)n4)c(OC)cc3C(=O)N2C1 [Compound 12, (S,Z)-N-(5-(5-amino-1H-indole-1-carbonyl)-1-methyl-1H-pyrrol-3-yl)-4-(4-((7-methoxy-2-methylene-5-oxo-2,3,5,11a-tetrahydro-1H-benzo[e]pyrrolo[1,2-a][1,4]diazepin-8-yl)oxy)butanamido)-1-methyl-1H-imidazole-2-carboxamide] | 8.70 | 9.40 | 8.15 | 8.36 | 7.86
11 | C=C1C[C@H]2C=Nc3cc(OCCCC(=O)Nc4cn(C)c(C(=O)Nc5cc(C(=O)Nc6cc(C(=O)n7ccc8ccc(N)cc87)n(C)c6)n(C)c5)n4)c(OC)cc3C(=O)N2C1 [Compound 13A, (S,Z)-N-(5-(5-(6-amino-1H-indole-1-carbonyl)-1-methyl-1H-pyrrol-3-ylcarbamoyl)-1-methyl-1H-pyrrol-3-yl)-4-(4-(7-methoxy-2-methylene-5-oxo-2,3,5,11a-tetrahydro-1H-benzo[e]pyrrolo[1,2-a][1,4]diazepin-8-yloxy)butanamido)-1-methyl-1H-imidazole-2-carboxamide] | 8.60 | 9.55 | 9.14 | 8.44 | 8.36
12 | C=C1C[C@H]2C=Nc3cc(OCCCC(=O)Nc4cn(C)c(C(=O)Nc5cc(C(=O)Nc6cc(C(=O)n7ccc8cc(SC)ccc87)n(C)c6)n(C)c5)n4)c(OC)cc3C(=O)N2C1 [Compound 19, (S,Z)-4-(4-(7-methoxy-2-methylene-5-oxo-2,3,5,11a-tetrahydro-1H-benzo[e]pyrrolo[1,2-a][1,4]diazepin-8-yloxy)butanamido)-1-methyl-N-(1-methyl-5-(1-methyl-5-(5-(methylthio)-1H-indole-1-carbonyl)-1H-pyrrol-3-ylcarbamoyl)-1H-pyrrol-3-yl)-1H-imidazole-2-carboxamide] | 9.23 | 9.70 | 9.46 | 8.87 | 8.68
13 | C=C1C[C@H]2C=Nc3cc(OCCCC(=O)Nc4cn(C)c(C(=O)Nc5cc(C(=O)Nc6cc(C(=O)n7ccc8cc(S(C)(=O)=O)ccc87)n(C)c6)n(C)c5)n4)c(OC)cc3C(=O)N2C1 [Compound 20, (S,Z)-4-(4-(7-methoxy-2-methylene-5-oxo-2,3,5,11a-tetrahydro-1H-benzo[e]pyrrolo[1,2-a][1,4]diazepin-8-yloxy)butanamido)-1-methyl-N-(1-methyl-5-(1-methyl-5-(5-(methylsulfonyl)-1H-indole-1-carbonyl)-1H-pyrrol-3-ylcarbamoyl)-1H-pyrrol-3-yl)-1H-imidazole-2-carboxamide] | 6.90 | 8.26 | 7.59 | 7.70 | 6.69
